Data on three compounds can be found in patent publication US11413241B2, “Method for preparing a composition with a low dissolved oxygen content, comprising acetaminophen, and optionally one or more NSAIDs, and a composition obtained thereof” (Hyloris Developments SA, priority 2017, dated 2022).

Molecules are shown by their SMILES.

The conditions of series [1]: from literature; cited from earlier work.
Series [2] can be described thus: Amount of acetaminophen at various points in time and different pH. The settings on record: pH range 6.3-7.3, various points in time. In kind it is physicochemical. The text has this: The amount of acetaminophen was studied at varies points in time and for different pH's.
The nature of series [3]: Dissolution/precipitation of sodium ibuprofen 2H2O alone in water at decreasing pH. In kind it is physicochemical.
The nature of series [4]: Dissolution of sodium ibuprofen 2H2O in the acetaminophen-ibuprofen formulation at varying pH. The series is classed as physicochemical.

With `CC(=O)Nc1ccc(O)cc1` [acetaminophen, N-(4-hydroxyphenyl)acetamide], the “pH at which rate of degradation is minimal” value in series [1] is listed as approximately 6. For the same compound, in series [2], the degradation of acetaminophen result is reported as “minimal degradation”.
On to `CC(C)Cc1ccc(C(C)C(=O)O)cc1` (stereo not shown) [ibuprofen], for which the “pH at which precipitation is observed” value in series [3] (3.85 mg/ml sodium ibuprofen 2H2O in water, pH gradually decreased) was found to be 5.75. Also, the precipitation entry in series [3] (pH 6, stored 1 month at 25° C.) was “showed precipitation”; in series [3] (pH 6.2, stored 1 month at 25° C.), “precipitation was absent”.
Compound `CC(C)Cc1ccc(C(C)C(=O)O)cc1` (stereo not shown) [sodium ibuprofen 2H2O] displayed a pH of composition in series [3] (3.85 mg/ml in water, before pH decrease) of 8.80. The Dissolved entry in series [3] (alone in water, pH 3) is on record as “No”; in series [3] (alone in water, pH 4), “No”; in series [3] (alone in water, pH 5), “No”; in series [3] (alone in water, pH 5.5), “No”; in series [3] (alone in water, pH 5.8), “Yes”; in series [3] (alone in water, pH 6), “Yes”. In addition, the Dissolved result is reported as “Yes” in series [3] (alone in water, pH 6.2); “Yes” in series [3] (alone in water, pH 6.4); “Yes” in series [3] (alone in water, pH 6.6); “Yes” in series [3] (alone in water, pH 6.8); “Yes” in series [3] (alone in water, pH 7); “Yes” in series [3] (alone in water, pH 7.5). Further, the Dissolved result is given as “No” in series [3] (in water after 1 month storage at 25° C., pH 5.8); “No” in series [3] (in water after 1 month storage at 25° C., pH 6); “Yes” in series [3] (in water after 1 month storage at 25° C., pH 6.2); “Yes” in series [3] (in water after 1 month storage at 25° C., pH 6.4); “Yes” in series [3] (in water after 1 month storage at 25° C., pH 6.6); “Yes” in series [3] (in water after 1 month storage at 25° C., pH 6.8). The Dissolved result in series [3] (in water after 1 month storage at 25° C., pH 7) was “Yes”; in series [3] (in water after 1 month storage at 25° C., pH 7.5), “Yes”; in series [4] (in the formulation 3 mg/ml Acetaminophen 10 mg/ml Ibuprofen, pH 6.2), “Yes”; in series [4] (in the formulation 3 mg/ml Acetaminophen 10 mg/ml Ibuprofen, pH 6.3), “Yes”; in series [4] (in the formulation 3 mg/ml Acetaminophen 10 mg/ml Ibuprofen, pH 6.4), “Yes”; in series [4] (in the formulation 3 mg/ml Acetaminophen 10 mg/ml Ibuprofen, pH 6.6), “Yes”. Moreover, the Dissolved result was “Yes” in series [4] (in the formulation 3 mg/ml Acetaminophen 10 mg/ml Ibuprofen, pH 7); “No” in series [4] (in the formulation Acetaminophen - Ibuprofen, 1 month, pH 6.2); “Yes” in series [4] (in the formulation Acetaminophen - Ibuprofen, 1 month, pH 6.3); “Yes” in series [4] (in the formulation Acetaminophen - Ibuprofen, 1 month, pH 6.4); “Yes” in series [4] (in the formulation Acetaminophen - Ibuprofen, 1 month, pH 6.6); “Yes” in series [4] (in the formulation Acetaminophen - Ibuprofen, 1 month, pH 7). The Dissolved result in series [4] (in the formulation Acetaminophen - Ibuprofen, 6 months, 25° C., pH 6.3) is given as “Yes”; in series [4] (in the formulation Acetaminophen - Ibuprofen, 6 months, 25° C., pH 6.4), “Yes”; in series [4] (in the formulation Acetaminophen - Ibuprofen, 6 months, 25° C., pH 6.6), “Yes”; in series [4] (in the formulation Acetaminophen - Ibuprofen, 6 months, 25° C., pH 7) it was “Yes”.
